Row | SMILES | melting point [°C]
1 | CC(=O)C1=C(O)C(=O)N(c2nc3ccc(Cl)cc3s2)C1c1ccc(F)cc1 (stereo not shown) [Compound 420] | 238 to 239
2 | COc1ccccc1CC(=O)C1=C(O)C(=O)N(c2nc3ccc(Cl)cc3s2)C1c1ccccc1F (stereo not shown) [Compound 481] | 186 to 188
3 | O=C(COc1ccccc1Cl)C1=C(O)C(=O)N(c2nc3ccc(Cl)cc3s2)C1c1ccc(F)cc1 (stereo not shown) [Compound 458] | 196 to 197
4 | Cc1ccc(C(=O)C2=C(O)C(=O)N(c3nc(N4CCOCC4)c4nc[nH]c4n3)C2c2ccccc2)o1 (stereo not shown) [Compound 283] | 291 to 292
5 | CCOc1ccc2nc(N3C(=O)C(O)=C(C(=O)c4ccc(C)o4)C3c3ccc4c(c3)OCO4)sc2c1 (stereo not shown) [Compound 251] | 230 to 231
6 | CCOc1ccc2nc(N3C(=O)C(O)=C(C(=O)c4ccc(C)o4)C3c3sc4ccccc4c3C)sc2c1 (stereo not shown) [Compound 250] | 227 to 228
7 | O=C(C1=C(O)C(=O)N(c2nc3c(Cl)cccc3s2)C1c1ccc(F)cc1)C1CCC1 (stereo not shown) [Compound 574] | 232 to 233
8 | CCOC(=O)CCC(=O)C1=C(O)C(=O)N(c2nc3ccc(Cl)cc3s2)C1c1ccc(Cl)cc1 (stereo not shown) [Compound 495] | 244 to 245
9 | Cc1ccc(C(=O)C2=C(O)C(=O)N(c3nc4ccc(F)cc4s3)C2c2cccc(F)c2F)o1 (stereo not shown) [Compound 624] | 239 to 240
10 | Cc1ccc(C(=O)C2=C(O)C(=O)N(CCCNCCCN)C2c2ccc(F)cc2)o1 (stereo not shown) [Compound 491] | 126 to 128
11 | Cc1ccc(C(=O)C2=C(O)C(=O)N(c3nc(N4CCOCC4)c4nc[nH]c4n3)C2c2cccc([N+](=O)[O-])c2)o1 (stereo not shown) [Compound 284] | 280 to 282
12 | Cc1ccc(C(=O)C2=C(O)C(=O)N(C(CO)CO)C2c2ccccc2F)o1 (stereo not shown) [Compound 434] | 74 to 75
13 | CCOc1ccc2nc(N3C(=O)C(O)=C(C(=O)c4ccc(C)o4)C3c3cccc(F)c3)sc2c1 (stereo not shown) [Compound 222] | 248 to 249
14 | O=C(C1=C(O)C(=O)N(c2nc3ccc(F)cc3s2)C1c1ccc(F)cc1)c1nccs1 (stereo not shown) [Compound 438] | 320 to 321
15 | Cc1ccc(C(=O)C2=C(O)C(=O)N(Cc3cccs3)C2c2ccccc2F)o1 (stereo not shown) [Compound 504] | 193 to 194
16 | CCc1ccc2nc(N3C(=O)C(O)=C(C(=O)c4ccc(C)o4)C3c3ccc(OC)cc3)sc2c1 (stereo not shown) [Compound 132] | 192 to 194
17 | Cc1ccc(C(=O)C2=C(O)C(=O)N(c3nc4c(Cl)cccc4s3)C2c2ccc(Oc3ccccc3)cc2)o1 (stereo not shown) [Compound 469] | 208 to 209
18 | Cc1ccc(C(=O)C2=C(O)C(=O)N(c3nc4ccc(Cl)cc4s3)C2c2ccc3ccccc3c2)o1 (stereo not shown) [Compound 599] | 255 to 257
19 | Cc1ccc(C(=O)C2=C(O)C(=O)N(c3ncnc4[nH]cnc34)C2c2ccccc2F)o1 (stereo not shown) [Compound 219] | 170 to 173
20 | Cc1ccc(C(=O)C2=C(O)C(=O)N(Cc3cccs3)C2c2ccc(F)cc2)o1 (stereo not shown) [Compound 505] | 225 to 226
21 | Cc1ccc(C(=O)C2=C(O)C(=O)N(c3nc4c(Cl)cccc4s3)C2c2ccc(C)o2)o1 (stereo not shown) [Compound 610] | 224 to 225
22 | COc1ccccc1CC(=O)C1=C(O)C(=O)N(c2nc3ccc(Cl)cc3s2)C1c1ccc(F)cc1 (stereo not shown) [Compound 484] | 253 to 255
23 | Cc1ccc(C(=O)C2=C(O)C(=O)N(c3nc4ccc(Cl)cc4s3)C2c2cccc([N+](=O)[O-])c2)o1 (stereo not shown) [Compound 139] | > 300

Row | SMILES | melting point [°C]
24 | Cc1ccc(C(=O)C2=C(O)C(=O)N(Cc3ccco3)C2c2ccccc2F)o1 (stereo not shown) [Compound 502] | 177 to 178
25 | COc1cccc(C2C(C(=O)c3ccc(C)o3)=C(O)C(=O)N2c2nc3ccc(F)cc3s2)c1 (stereo not shown) [Compound 603] | 201 to 202
26 | CCN(CC)c1ccc(C2C(C(=O)c3ccc(C)o3)=C(O)C(=O)N2c2nc3ccc(Cl)cc3s2)cc1 (stereo not shown) [Compound 614] | 207 to 210
27 | CCOc1ccc2nc(N3C(=O)C(O)=C(C(=O)c4ccc(C)o4)C3C3CCOC3)sc2c1 (stereo not shown) [Compound 190] | 185 to 186
28 | Cc1ccc(C(=O)C2=C(O)C(=O)N(c3nc4ccc(F)cc4s3)C2c2ccc(-c3ccccc3)cc2)o1 (stereo not shown) [Compound 465] | 228 to 231
29 | CCOc1ccc2nc(N3C(=O)C(O)=C(C(=O)c4ccc(C)o4)C3c3cccc(C#N)c3)sc2c1 (stereo not shown) [Compound 220] | 226 to 227
30 | CC(=O)C1=C(O)C(=O)N(c2nc3c(Cl)cccc3s2)C1c1ccc(F)cc1 (stereo not shown) [Compound 426] | 231 to 232
31 | Cc1ccc(C(=O)C2=C(O)C(=O)N(c3ncnc4[nH]ncc34)C2c2ccccc2F)o1 (stereo not shown) [Compound 218] | 256 to 258
32 | COc1cc(C2C(C(=O)c3ccc(C)o3)=C(O)C(=O)N2c2nc3c(Cl)cccc3s2)cc(OC)c1OC (stereo not shown) [Compound 607] | 251 to 252
33 | COc1ccccc1CC(=O)C1=C(O)C(=O)N(c2nc3ccc(F)cc3s2)C1c1ccc(F)cc1 (stereo not shown) [Compound 485] | 223 to 224
34 | Cc1ccc(C(=O)C2=C(O)C(=O)N(c3nc4ccc(S(C)(=O)=O)cc4s3)C2C2CCOC2)o1 (stereo not shown) [Compound 180] | 199 to 200
35 | COCCOc1ccc(CCC(=O)C2=C(O)C(=O)N(c3nc4c(Cl)cccc4s3)C2c2ccccc2F)cc1 (stereo not shown) [Compound 577] | 179 to 180
36 | Cc1ccc(C(=O)C2=C(O)C(=O)N(c3nc4ccc(F)cc4s3)C2c2ccccc2C)o1 (stereo not shown) [Compound 627] | 214 to 215
37 | Cc1ccc(C(=O)C2=C(O)C(=O)N(C3CCCCC3)C2c2ccccc2F)o1 (stereo not shown) [Compound 432] | 195 to 196
38 | Cc1ccc(C(=O)C2=C(O)C(=O)N(c3ccc4ncsc4c3)C2c2ccc(F)cc2)o1 (stereo not shown) [Compound 565] | 221 to 222
39 | O=C(C1=C(O)C(=O)N(c2nc3ccc(Cl)cc3s2)C1c1ccc(Cl)cc1)C1CC1 (stereo not shown) [Compound 453] | 245 to 246
40 | Cc1ccc(C(=O)C2=C(O)C(=O)N(c3nc4c(Cl)cccc4s3)C2c2ccccc2C)o1 (stereo not shown) [Compound 628] | 244 to 245
41 | Cc1ccc(C(=O)C2=C(O)C(=O)N(c3nc4ccc(Cl)cc4s3)C2c2ccc(Oc3ccccc3)cc2)o1 (stereo not shown) [Compound 467] | 238 to 239
42 | Cc1ccc(C(=O)C2=C(O)C(=O)N(c3nc4ccc(F)cc4s3)C2c2ccc(OCCO)cc2)o1 (stereo not shown) [Compound 478] | 134 to 135
43 | Cc1ccc(C(=O)C2=C(O)C(=O)N(c3nc4ccc(Cl)cc4s3)C2c2ccc(C#N)cc2)o1 (stereo not shown) [Compound 620] | 259 to 260
44 | Cc1ccc(C(=O)C2=C(O)C(=O)N(c3ncc(C)s3)C2c2ccccc2F)o1 (stereo not shown) [Compound 161] | 251 to 252
45 | CCOC(=O)CCC(=O)C1=C(O)C(=O)N(c2nc3ccc(F)cc3s2)C1c1ccccc1F (stereo not shown) [Compound 496] | 184 to 185
46 | O=C(C1=C(O)C(=O)N(c2nc3ccc(Cl)cc3s2)C1c1ccccc1F)C1CCC1 (stereo not shown) [Compound 571] | 262 to 263

Row | SMILES | melting point [°C]
47 | COc1cccc(C2C(C(=O)c3ccc(C)o3)=C(O)C(=O)N2c2nc3ccc(Cl)cc3s2)c1 (stereo not shown) [Compound 602] | 229 to 230
48 | Cc1ccc(C(=O)C2=C(O)C(=O)N(c3nc4ccc(Cl)cc4s3)C2c2ccc(OCc3ccccc3)cc2)o1 (stereo not shown) [Compound 470] | 196 to 197
49 | COc1ccccc1CC(=O)C1=C(O)C(=O)N(c2nc3c(Cl)cccc3s2)C1c1ccccc1F (stereo not shown) [Compound 483] | 224 to 226
50 | CCOc1ccc2nc(N3C(=O)C(OC(C)=O)=C(C(=O)c4ccc(C)o4)C3c3ccc(OCCOC(C)=O)cc3)sc2c1 (stereo not shown) [Compound 253] | 114 to 115
51 | COc1ccc2nc(N3C(=O)C(O)=C(C(=O)c4ccc(C)o4)C3c3cccnc3)sc2c1 (stereo not shown) [Compound 158] | 291 to 292
52 | COc1ccccc1CC(=O)C1=C(O)C(=O)N(c2nc3c(Cl)cccc3s2)C1c1ccc(Cl)cc1 (stereo not shown) [Compound 489] | 176 to 178
53 | Cc1ccc(C(=O)C2=C(O)C(=O)N(c3nc4cccnc4s3)C2c2ccc(O)c(C(=O)O)c2)o1 (stereo not shown) [Compound 248] | 243 to 245
54 | Cc1ccc(C(=O)C2=C(O)C(=O)N(c3ccc4ncsc4c3)C2c2ccccc2F)o1 (stereo not shown) [Compound 564] | 231 to 232
55 | O=C(C1=C(O)C(=O)N(c2nc3ccc(Cl)cc3s2)C1c1ccccc1F)C1CC1 (stereo not shown) [Compound 451] | 246 to 247
56 | Cc1ccc(C(=O)C2=C(O)C(=O)N(c3nc4ccc(Cl)cc4s3)C2c2ccc(F)c(F)c2)o1 (stereo not shown) [Compound 461, 1-(6-Chlorobenzo[d]thiazol-2-yl)-5-(3,4-difluorophenyl)-3-hydroxy-4-(5-methylfuran-2-carbonyl)-1H-pyrrol-2(5H)-one] | 235 to 236
57 | O=C(C1=C(O)C(=O)N(c2nc3c(Cl)cccc3s2)C1c1ccc(F)cc1)C1CC1 (stereo not shown) [Compound 457] | 218 to 219
58 | Cc1ccc(C(=O)C2=C(O)C(=O)N(c3nc4c(Cl)cccc4s3)C2c2ccc(F)c(F)c2)o1 (stereo not shown) [Compound 463] | 269 to 270
59 | O=C(C1=C(O)C(=O)N(c2nc3c(Cl)cccc3s2)C1c1ccccc1F)C1CC1 (stereo not shown) [Compound 456] | 253 to 254
60 | CC(=O)NC(CC(C)C)C(=O)C1=C(O)C(=O)N(c2nc3ccc(Cl)cc3s2)C1c1ccc(F)cc1 (stereo not shown) [Compound 647] | 148 to 152
61 | COc1ccc2nc(N3C(=O)C(O)=C(C(=O)c4ccc(C)o4)C3c3ccco3)sc2c1 (stereo not shown) [Compound 153] | 240 to 242
62 | Cc1ccc(C(=O)C2=C(O)C(=O)N(c3nc4ccc(Cl)cc4s3)C2c2ccc(OCCCN(C)C)cc2)o1 (stereo not shown) [Compound 479] | 211 to 213
63 | COc1ccc2nc(N3C(=O)C(O)=C(C(=O)c4ccc(C)o4)C3c3ccccn3)sc2c1 (stereo not shown) [Compound 157] | 240 to 241
64 | O=C(COc1ccccc1)C1=C(O)C(=O)N(c2nc3ccc(Cl)cc3s2)C1c1ccc(F)cc1 (stereo not shown) [Compound 447] | 203 to 204
65 | Cc1ccc(C(=O)C2=C(O)C(=O)N(c3nc4c(Cl)cccc4s3)C2c2cccc3ccccc23)o1 (stereo not shown) [Compound 619] | 249 to 250
66 | O=C(C1=C(O)C(=O)N(c2nc3ccc(Cl)cc3s2)C1c1ccc(F)cc1)C1CCC1 (stereo not shown) [Compound 572] | 271 to 273
67 | Cc1ccc(C(=O)C2=C(O)C(=O)N(c3nc4ccc(F)cc4s3)C2c2ccc(C#N)cc2)o1 (stereo not shown) [Compound 621] | 255 to 256

Source: patent publication US20110130397A1, “PYRROLINONE COMPOUNDS AS INHIBITORS OF BACTERIAL PEPTIDYL TRNA HYDROLASE AND USES THEREOF” (priority 2006, published 2011)
